Measurements as given in patent US20230149407A1, “Methods of Treating Coronavirus Disease 2019” (priority 2020, published 2023).
Entries after “also recorded” stand apart in the source; their conditions may differ.

Tests used:
[1] = system: human bronchial epithelial cells; assay: chemokine production from human bronchial epithelial cells; assay type: cell-based
hsCRP = hsCRP in healthy adults; assay type: in vivo, human
[2] = system: imiquimod (a TLR7 agonist)-induced skin inflammation; assay: 5-day murine model of imiquimod-induced skin inflammation; assay type: in vivo; conditions: 5-day murine imiquimod model
C-reactive protein (CRP) = assay: expected reduction in CRP (exposure response model); assay type: in vivo, human
LPS-induced TNFα = assay: acute model of endotoxin-induced inflammation in rats; assay type: in vivo, rat; conditions: administered orally
inflammatory monocytes = assay: levels of inflammatory monocytes; parameters: species or system human; conditions: in vivo
[3] = system: moderately to severely active RA; assay: 12-week study in patients with moderately to severely active RA; assay type: in vivo, human; conditions: doses of 200 and 400 mg as modified release (MR) tablets
[4] = renal excretion of PF-06650833; conditions: in vivo
[5] = system: collagen-induced arthritis; assay: rat collagen-induced arthritis model; assay type: in vivo
[6] = system: blood transcriptional programs for type I interferons and IL-6; assay: blood transcriptional programs in healthy volunteers and RA patients; assay type: in vivo, human
IL-6 = assay: expected suppression of IL-6 at clinical tofacitinib doses; assay type: in vivo, human
IL-6/STAT3 signaling = assay: in-vitro IL-6/STAT3 signaling; assay type: cell-based; conditions: both at 5 and 10 mg
[7] = system: IFNα, IFNβ, IFNγ, TNFα, IL-1, IL-2, IL4, IL-6, IL-7, IL-9, IL-10, IL-12, IL13, IL-15, IL-21, IL-23, and IL-27; conditions: cited from earlier work

Row | Compound | chemokine production, IL-1β-stimulated release of CXCL8 and IL-6 [1] | levels of hsCRP (hsCRP) | ear swelling [2] | reduction in CRP (C-reactive protein (CRP); 200 mg IR suspension Q6H) | reduction in CRP (C-reactive protein (CRP); 400 mg MR tablets QD (or 200 mg IR suspension Q6H)) | LPS-induced TNFα (LPS-induced TNFα) | levels of inflammatory monocytes (inflammatory monocytes) | efficacy in 12-week study in RA patients [3] | renal excretion [4] | hind paw swelling [5] | blood transcriptional programs for type I interferons and IL-6 [6] | predicted suppression of IL-6 (IL-6; 5 mg BID dose) | suppression of IL-6 (IL-6; 10 mg BID dose, may be expected) | IL-6/STAT3 signaling (IL-6/STAT3 signaling) | levels of IFNα, IFNβ, IFNγ, TNFα, IL-1, IL-2, IL4, IL-6, IL-7, IL-9, IL-10, IL-12, IL13, IL-15, IL-21, IL-23, and IL-27 [7]
1 | CC[C@@H]1[C@H](F)C(=O)N[C@@H]1COc1nccc2cc(C(N)=O)c(OC)cc12 [PF-06650833, 1-(((2S,3S,4S)-3-Ethyl-4-fluoro-5-oxopyrrolidin-2-yl)methoxy)-7-methoxyisoquinoline-6-carboxamide] | reduces | suppression of CRP; also recorded: dose-dependently reduced | inhibit ear swelling in a dose-dependent manner | 50-60% | 50-60% | inhibit LPS-induced TNFα in a dose-dependent manner | reduces levels | demonstrated efficacy | low | significantly reduced | dose-dependently inhibits | – | – | – | –
2 | C[C@@H]1CCN(C(=O)CC#N)C[C@@H]1N(C)c1ncnc2[nH]ccc12 [tofacitinib, 3-((3R,4R)-4-Methyl-3-(methyl(7H-pyrrolo[2,3-d]pyrimidin-4-yl)amino)piperidin-1-yl)-3-oxopropanenitrile] | – | – | – | – | – | – | – | – | – | – | – | approximately 60% | approximately 80% | inhibits | reduces levels
